Experiments:
[1] = Metabolic stability in Wistar rat plasma at 39 MBq, iv after 60 mins; type: ADME, organism-based; settings: read-out: Stability
[2] = Cytotoxicity against VEGFR expressing HAEC after 72 hrs by MTT assay; type: functional, Homo sapiens
HT-29 = assay: Cytotoxicity against VEGFR expressing human HT-29 cells after 72 hrs by MTT assay; type: functional, cell-based; settings: HT-29, 72 h
[3] = molecular target: Vascular endothelial growth factor receptor 2 (Homo sapiens, UniProt P35968); assay: Binding affinity to DNA-tagged VEGFR2 by qPCR based competitive binding assay
Chain of Vascular endothelial growth factor receptor 2 (P35968 whole entry): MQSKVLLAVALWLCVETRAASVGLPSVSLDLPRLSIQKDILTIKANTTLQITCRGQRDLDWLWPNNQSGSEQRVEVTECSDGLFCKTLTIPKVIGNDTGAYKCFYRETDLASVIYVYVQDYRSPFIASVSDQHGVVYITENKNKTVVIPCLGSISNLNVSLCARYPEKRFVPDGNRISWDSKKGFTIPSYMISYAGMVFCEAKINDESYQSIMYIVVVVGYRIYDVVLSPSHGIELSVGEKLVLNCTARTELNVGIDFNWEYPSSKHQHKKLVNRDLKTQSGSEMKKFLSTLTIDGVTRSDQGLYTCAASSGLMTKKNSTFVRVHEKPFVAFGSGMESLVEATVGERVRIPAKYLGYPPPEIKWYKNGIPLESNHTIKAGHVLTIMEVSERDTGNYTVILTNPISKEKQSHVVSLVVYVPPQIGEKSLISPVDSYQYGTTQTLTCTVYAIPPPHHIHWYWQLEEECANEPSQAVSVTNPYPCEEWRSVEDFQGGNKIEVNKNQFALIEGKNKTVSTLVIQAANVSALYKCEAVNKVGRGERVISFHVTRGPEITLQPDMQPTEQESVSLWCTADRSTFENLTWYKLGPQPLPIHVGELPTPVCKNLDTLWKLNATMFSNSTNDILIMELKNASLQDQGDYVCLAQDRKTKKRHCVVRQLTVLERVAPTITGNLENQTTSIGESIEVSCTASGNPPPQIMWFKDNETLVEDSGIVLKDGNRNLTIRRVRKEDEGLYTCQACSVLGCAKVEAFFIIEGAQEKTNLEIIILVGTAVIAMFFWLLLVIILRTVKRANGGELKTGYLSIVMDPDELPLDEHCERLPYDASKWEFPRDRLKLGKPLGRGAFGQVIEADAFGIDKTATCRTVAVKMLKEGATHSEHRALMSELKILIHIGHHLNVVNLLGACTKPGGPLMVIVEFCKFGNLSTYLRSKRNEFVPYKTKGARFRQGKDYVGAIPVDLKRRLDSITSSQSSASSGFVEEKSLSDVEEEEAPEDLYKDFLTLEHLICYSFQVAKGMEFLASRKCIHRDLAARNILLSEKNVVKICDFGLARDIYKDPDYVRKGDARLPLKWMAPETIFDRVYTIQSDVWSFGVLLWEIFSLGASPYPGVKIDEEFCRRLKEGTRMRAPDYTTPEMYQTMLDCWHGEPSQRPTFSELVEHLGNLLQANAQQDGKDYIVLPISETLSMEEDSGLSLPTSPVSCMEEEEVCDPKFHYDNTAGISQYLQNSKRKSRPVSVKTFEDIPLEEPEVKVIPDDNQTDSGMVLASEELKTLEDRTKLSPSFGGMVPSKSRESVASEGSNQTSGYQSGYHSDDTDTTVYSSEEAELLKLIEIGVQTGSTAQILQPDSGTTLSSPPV

| Compound | remaining at 1 h [1] [%] | IC50 [2] [µM] | IC50 (HT-29) [µM] | Kd [3] [µM] |
| --- | --- | --- | --- | --- |
| CCN(CC)CCNC(=O)c1c(C)[nH]c(/C=C2\C(=O)Nc3ccc(O[11CH3])cc32)c1C | > 70 | – | – | – |
| CCN(CC)CCNC(=O)c1c(C)[nH]c(/C=C2\C(=O)Nc3ccc(F)cc32)c1C [SUNITINIB] | – | 0.1 | – | – |
| CCN(CC)CCNC(=O)c1c(C)[nH]c(/C=C2\C(=O)Nc3ccc(OC)cc32)c1C | – | 54.8 | 7.88 | 0.02 |

Source: ChEMBL document CHEMBL2150864 (Eur J Med Chem, 2012)
